Data as given in patent publication US20080193619A1, “Use of Fullerence C60 as an Oil Stabilizer” (UNI PHARMA HOLDING AS, priority 2005, published 2008).

Experiments:
[1] = In vitro experiments: cytotoxicity and hepatotoxicity; format: cell-based; conditions: concentrations up to 100 mM in water
cellular membranes = assay: In vitro experiments: cellular respiration and cellular membranes; format: cell-based
[2] = Organoleptic testing (taste and smell) of stabilized salmon oil; conditions: salmon oil with the additive, organoleptic test
Protocol: With basis in salmon oil as a nutritional supplement, organoleptic characteristics (determination of the quality of the oil by taste and smell) are also of importance. Standardized methods for organoleptic testing were utilized: one drop of salmon oil was placed on the arm and applied in a thin layer by means of a piece of glass. After one minute the quality of the oil could be determined by taste and smell. Five different individuals were tested, once per week, to obtain independent results. […] Both smell and taste was satisfactory at this point in time, and better for fullerene, witch kept well for 600 days, than for rosemary, witch only kept for 300 days.

[3] = In vitro experiments: antioxidant activity
[4] = In vivo experiments: toxicity, immunogenicity, allergenicity; conditions: dosages up to 25 mg/kg (0.0025% by weight) in aqueous solution
[5] = Storage (shelf life) test of salmon oil stabilized with antioxidant, degree of oxidation in fatty acids; design: degree of oxidation in fatty acids: unit not given here; conditions: for degree of oxidation in fatty acids: fullerene C60 0.001%, rosemary 0.1%
Protocol: FIG. 2. Shelf life tests for salmon oil stabilized with fullerene or rosemary. The results are given as the change in the oxidation level of fatty acids in the oil. The antioxidants rosemary and fullerene were present at 0.1% and 0.001% by weight, respectively.
Research on storage of salmon oil was carried out at temperatures of 25° C. and 5° C. during the time period from Jun. 11, 2003 to Nov. 10, 2004 (17 months). The quality of the rosemary and fullerene C60 as antioxidants in salmon oil was studied in parallel during the entire duration of the experiment.
The concentration of the two chosen antioxidants used in the experiment were obtained by an addition of 0.1% rosemary (the same concentration used in the products UNIC Omega-3 and AniMega) and 0.001% fullerene C60.
Standard methods of defining the degree of oxidation in fatty acids were used during selected time periods during the storage test. FIG. 2. presents data from a storage temperature of 5° C.

[6] = In vitro experiments: blood fibrillation
[7] = concentrations up to 100 mM in water

Q: Which cytotoxicity [1] does the source give for `c12c3c4c5c1c1c6c7c2c2c8c3c3c9c4c4c%10c5c5c1c1c6c6c%11c7c2c2c7c8c3c3c8c9c4c4c9c%10c5c5c1c1c6c6c%11c2c2c7c3c3c8c4c4c9c5c1c1c6c2c3c41` [fullerene C60] here?
A: Its cytotoxicity is “not cytotoxic”.

Q: And the hepatotoxicity [1]?
A: Its hepatotoxicity is “not cytotoxic or hepatoxic”.

Q: And the “inhibition of cellular respiration” value (cellular membranes; [7])?
A: Its value is “does not inhibit cellular respiration”.

Q: What about the “inhibition of membrane catalytic activity” value (cellular membranes; [7]) of the same compound?
A: Its value is “does not inhibit cellular respiration or inhibition of membrane catalytic activity”.

Q: What about the “stabilization of cellular membranes” value (cellular membranes; stability during unfavourable conditions) of the same compound?
A: The value was “stabilizes cellular membranes”.

Q: What about the “time the oil kept (smell and taste)” value [2] of the same compound?
A: Its value is 600 days.

Q: What about the “antioxidant activity compared with ionol, vitamin E and beta-carotene” value [3] of the same compound?
A: The value was “greater than ionol, vitamin E, and beta-carotene”.

Q: And the allergenicity in vivo [4]?
A: Its allergenicity in vivo is “not toxic, immunogenic, or an allergen”.

Q: What about the immunogenicity in vivo [4] of the same compound?
A: The immunogenicity in vivo was “not toxic, immunogenic”.

Q: And the toxicity in vivo [4]?
A: The toxicity in vivo was “not toxic”.

Q: And the “keeping time of stabilized fish oil” value ([5]; fish oil stabilized with the antioxidant)?
A: Its value is 600 days.

Q: What about the “degree of oxidation in fatty acids” value ([5]; salmon oil, 5 C., day 0 (11.06)) of the same compound?
A: Its value is 0.00036.

Q: And the “degree of oxidation in fatty acids” value ([5]; salmon oil, 5 C., day 14 (25.06))?
A: Its value is 0.00083.

Q: What about the “degree of oxidation in fatty acids” value ([5]; salmon oil, 5 C., day 81 (8.09)) of the same compound?
A: The value was 0.0010.

Q: What about the “degree of oxidation in fatty acids” value ([5]; salmon oil, 5 C., day 95 (22.09)) of the same compound?
A: The value was 0.00095.

Q: And the “degree of oxidation in fatty acids” value ([5]; salmon oil, 5 C., day 109 (6.10))?
A: The value was 0.0014.

Q: What about the “degree of oxidation in fatty acids” value ([5]; salmon oil, 5 C., day 123 (20.10)) of the same compound?
A: The value was 0.0012.

Q: What about the “degree of oxidation in fatty acids” value ([5]; salmon oil, 5 C., day 185 (21.12)) of the same compound?
A: The value was 0.0023.

Q: And the “degree of oxidation in fatty acids” value ([5]; salmon oil, 5 C., day 200 (05.01))?
A: Its value is 0.0027.

Q: What about the “degree of oxidation in fatty acids” value ([5]; salmon oil, 5 C., day 214 (19.01)) of the same compound?
A: The value was 0.0028.

Q: What about the “degree of oxidation in fatty acids” value ([5]; salmon oil, 5 C., day 228 (02.02)) of the same compound?
A: The value was 0.0028.

Q: And the “degree of oxidation in fatty acids” value ([5]; salmon oil, 5 C., day 242 (16.02))?
A: The value was 0.0030.

Q: And the “degree of oxidation in fatty acids” value ([5]; salmon oil, 5 C., day 256 (2.03))?
A: Its value is 0.0030.

Q: And the “degree of oxidation in fatty acids” value ([5]; salmon oil, 5 C., day 270 (16.03))?
A: Its value is 0.0031.

Q: And the “degree of oxidation in fatty acids” value ([5]; salmon oil, 5 C., day 284 (30.03))?
A: Its value is 0.0033.

Q: And the “degree of oxidation in fatty acids” value ([5]; salmon oil, 5 C., day 298 (13.04))?
A: The value was 0.0037.

Q: And the “degree of oxidation in fatty acids” value ([5]; salmon oil, 5 C., day 312 (27.04))?
A: The value was 0.0039.

Q: What about the “degree of oxidation in fatty acids” value ([5]; salmon oil, 5 C., day 326 (11.05)) of the same compound?
A: Its value is 0.0040.

Q: What about the “degree of oxidation in fatty acids” value ([5]; salmon oil, 5 C., day 340 (25.05)) of the same compound?
A: Its value is 0.0043.

Q: And the “degree of oxidation in fatty acids” value ([5]; salmon oil, 5 C., day 354 (8.06))?
A: Its value is 0.0046.

Q: And the “degree of oxidation in fatty acids” value ([5]; salmon oil, 5 C., day 368 (22.06))?
A: Its value is 0.0048.

Q: And the “degree of oxidation in fatty acids” value ([5]; salmon oil, 5 C., day 372 (06.07))?
A: The value was 0.0050.

Q: What about the “degree of oxidation in fatty acids” value ([5]; salmon oil, 5 C., day 386 (20.07)) of the same compound?
A: Its value is 0.0052.

Q: And the “degree of oxidation in fatty acids” value ([5]; salmon oil, 5 C., day 414 (15.08))?
A: The value was 0.0054.

Q: And the “degree of oxidation in fatty acids” value ([5]; salmon oil, 5 C., day 428 (29.08))?
A: Its value is 0.0055.

Q: What about the “degree of oxidation in fatty acids” value ([5]; salmon oil, 5 C., day 442 (12.09)) of the same compound?
A: The value was 0.0058.

Q: And the “degree of oxidation in fatty acids” value ([5]; salmon oil, 5 C., day 456 (26.09))?
A: Its value is 0.0061.

Q: And the “degree of oxidation in fatty acids” value ([5]; salmon oil, 5 C., day 470 (10.10))?
A: The value was 0.0065.

Q: What about the “degree of oxidation in fatty acids” value ([5]; salmon oil, 5 C., day 484 (24.10)) of the same compound?
A: Its value is 0.0066.

Q: And the “degree of oxidation in fatty acids” value ([5]; salmon oil, 25 C., day 0 (11.06))?
A: The value was 0.00036.

Q: And the “degree of oxidation in fatty acids” value ([5]; salmon oil, 25 C., day 14 (25.06))?
A: Its value is 0.00076.

Q: And the “degree of oxidation in fatty acids” value ([5]; salmon oil, 25 C., day 81 (8.09))?
A: The value was 0.0020.

Q: And the “degree of oxidation in fatty acids” value ([5]; salmon oil, 25 C., day 95 (22.09))?
A: Its value is 0.0031.

Q: And the “degree of oxidation in fatty acids” value ([5]; salmon oil, 25 C., day 109 (6.10))?
A: The value was 0.0090.

Q: What about the “degree of oxidation in fatty acids” value ([5]; salmon oil, 25 C., day 123 (20.10)) of the same compound?
A: Its value is 0.0015.

Q: And the “degree of oxidation in fatty acids” value ([5]; salmon oil, 25 C., day 185 (21.12))?
A: Its value is 0.012.

Q: What about the “degree of oxidation in fatty acids” value ([5]; salmon oil, 25 C., day 200 (05.01)) of the same compound?
A: The value was 0.015.

Q: And the “degree of oxidation in fatty acids” value ([5]; salmon oil, 25 C., day 214 (19.01))?
A: The value was 0.022.

Q: And the “degree of oxidation in fatty acids” value ([5]; salmon oil, 25 C., day 228 (02.02))?
A: The value was 0.034.

Q: And the “degree of oxidation in fatty acids” value ([5]; salmon oil, 25 C., day 242 (16.02))?
A: The value was 0.037.

Q: And the “degree of oxidation in fatty acids” value ([5]; salmon oil, 25 C., day 256 (2.03))?
A: Its value is 0.038.

Q: And the “degree of oxidation in fatty acids” value ([5]; salmon oil, 25 C., day 270 (16.03))?
A: Its value is 0.040.

Q: What about the “degree of oxidation in fatty acids” value ([5]; salmon oil, 25 C., day 284 (30.03)) of the same compound?
A: Its value is 0.041.

Q: And the “degree of oxidation in fatty acids” value ([5]; salmon oil, 25 C., day 298 (13.04))?
A: Its value is 0.044.

Q: And the “degree of oxidation in fatty acids” value ([5]; salmon oil, 25 C., day 312 (27.04))?
A: The value was 0.047.

Q: And the “degree of oxidation in fatty acids” value ([5]; salmon oil, 25 C., day 326 (11.05))?
A: The value was 0.049.

Q: What about the “degree of oxidation in fatty acids” value ([5]; salmon oil, 25 C., day 340 (25.05)) of the same compound?
A: Its value is 0.054.

Q: What about the “degree of oxidation in fatty acids” value ([5]; salmon oil, 25 C., day 354 (8.06)) of the same compound?
A: The value was 0.059.

Q: What about the “degree of oxidation in fatty acids” value ([5]; salmon oil, 25 C., day 368 (22.06)) of the same compound?
A: Its value is 0.063.

Q: And the “degree of oxidation in fatty acids” value ([5]; salmon oil, 25 C., day 372 (06.07))?
A: Its value is 0.066.

Q: And the “degree of oxidation in fatty acids” value ([5]; salmon oil, 25 C., day 386 (20.07))?
A: The value was 0.068.

Q: What about the “degree of oxidation in fatty acids” value ([5]; salmon oil, 25 C., day 414 (15.08)) of the same compound?
A: The value was 0.070.

Q: What about the “degree of oxidation in fatty acids” value ([5]; salmon oil, 25 C., day 428 (29.08)) of the same compound?
A: The value was 0.072.

Q: What about the “degree of oxidation in fatty acids” value ([5]; salmon oil, 25 C., day 442 (12.09)) of the same compound?
A: Its value is 0.080.

Q: What about the “degree of oxidation in fatty acids” value ([5]; salmon oil, 25 C., day 456 (26.09)) of the same compound?
A: Its value is 0.085.

Q: And the “degree of oxidation in fatty acids” value ([5]; salmon oil, 25 C., day 470 (10.10))?
A: Its value is 0.088.

Q: What about the “degree of oxidation in fatty acids” value ([5]; salmon oil, 25 C., day 484 (24.10)) of the same compound?
A: The value was 0.089.

Q: And the “effectiveness as additive (antioxidant) compared with rosemary” value ([5]; salmon oil, temperature of 5 C)?
A: The value was “more effective additive than rosemary”.

Q: And the “effect on blood fibrillation” value [6]?
A: Its value is “no bearing on blood fibrillation”.
